Measured values as given in US10918713B2, “Epitopes from allergen proteins and methods and uses for immune response modulation” (LA JOLLA INSTITUTE FOR ALLERGY AND IMMUNOLOGY, priority 2012, dated 2021).
Values joined by “and” are separate entries in the source; they are usually repeats but may differ in a detail not shown here. Equal entries are not always repeated.

Legend:
Assay type in all cases: cell-based, human
[1] = system: PBMC from allergic donors; experiment: IL-5 ELISPOT with extract-stimulated short-term lines; conditions: positive donor/peptide response
Experimental: (§1) Spots were counted by computer-assisted image analysis (Zeiss, KS-ELISPOT reader, Munich, Germany).
(§2) Each assay was performed in triplicate. The level of statistical significance was determined with a Student's t-test using the mean of triplicate values of the response against relevant pools or individual peptides versus the response against the DMSO control.

[2] = system: PBMC from allergic donors; experiment: IFN-γ ELISPOT with extract-stimulated short-term lines; conditions: positive donor/peptide response
Experimental: as §1, §2

[3] = system: PBMC from allergic donors; experiment: Dual ELISPOT, total IL-5 and IFN-γ response (SFC); conditions: sum of IFNg and IL-5
Experimental: as §1, §2

Compound	Response (SFC/10^6) IL-5 ([1]; one donor per table line)	Response (SFC/10^6) IFNg ([2]; one donor per table line)	Response (SFC/10^6) IL-5 ([1]; each table line is one donor)	Response (SFC/10^6) IFNg ([2]; each table line is one donor) [SFC/10^6]	Response (SFC/10^6) Total ([3]; each table line is one donor)	Response (SFC/10^6) Total ([3]; one donor per table line)
3324.0001 (AVGLLKAVESYLLAH)	597 SFC/10^6	597 SFC/10^6	–	–	–	–
3324.0099 (MKNIFMLTLFILIIT)	–	–	57 SFC/10^6	77	57 SFC/10^6 and 77 SFC/10^6	–
3324.0102 (DKWLDAKSTWYGKPT)	147 SFC/10^6	447 SFC/10^6 and 233 SFC/10^6 and 123 SFC/10^6	–	–	–	593 SFC/10^6 and 233 SFC/10^6 and 123 SFC/10^6
3324.0382 (LYPDVKYTTVEEYLQ)	67 SFC/10^6	67 SFC/10^6	–	–	–	–
3324.0613 (MNIKLQMPLYVAGYK)	652 SFC/10^6	120 SFC/10^6	–	–	–	652 SFC/10^6 and 120 SFC/10^6
3324.0660 (IPTAFKIGTTYTPEE)	170 SFC/10^6	110 SFC/10^6	–	–	–	280 SFC/10^6
3324.0834 (KAFNKSYATFEDEEA)	703 SFC/10^6	1563 SFC/10^6	–	–	–	2267 SFC/10^6
3324.0836 (EIDLRQMRTVTPIRM)	613 SFC/10^6	120 SFC/10^6	–	–	–	733 SFC/10^6
3324.0842 (GGAINHLSDLSLDEF)	603 SFC/10^6	170 SFC/10^6	–	–	–	773 SFC/10^6
3324.1104 (LGFFKKEALPQCAQV)	573 SFC/10^6	53 SFC/10^6	–	–	–	627 SFC/10^6
3324.1166 (HTVALFLAVALVAGP)	–	–	–	53	53 SFC/10^6	–
3324.1168 (NAGFKAAVAAAAVVP)	–	–	873 SFC/10^6 and 977 SFC/10^6 and 248 SFC/10^6	850	1723 SFC/10^6 and 977 SFC/10^6 and 248 SFC/10^6	–
3324.1169 (DAALKLAYEAAQGAT)	–	–	–	120	120 SFC/10^6	–
3324.1171 (KTFVETFGTATNKAF)	–	–	–	73	73 SFC/10^6	–
3324.1177 (AAVKQAYAAKQATAP)	–	–	–	43	43 SFC/10^6	–
3324.1180 (PEAKYDAYVATLTEA)	–	–	–	227	227 SFC/10^6	–
3324.1443 (DAAYRVAYEAAEGST)	–	–	–	70	70 SFC/10^6	–

Compound	Response (SFC/10^6) IL-5 ([1]; one donor per table line)	Response (SFC/10^6) IFNg ([2]; one donor per table line)	Response (SFC/10^6) IL-5 ([1]; each table line is one donor)	Response (SFC/10^6) IFNg ([2]; each table line is one donor) [SFC/10^6]	Response (SFC/10^6) Total ([3]; each table line is one donor)	Response (SFC/10^6) Total ([3]; one donor per table line)
3324.1586 (KAVEAYLVAHPDLYK)	83 SFC/10^6 and 53 SFC/10^6 and 143 SFC/10^6 and 443 SFC/10^6	110 SFC/10^6	–	–	–	83 SFC/10^6 and 53 SFC/10^6 and 143 SFC/10^6 and 553 SFC/10^6
3324.1592 (LGRAWFEAARVVFSY)	–	–	1430 SFC/10^6	120	1550 SFC/10^6	–
3324.1625 (GFYLQWAVHSFRITN)	–	–	143 SFC/10^6	193	337 SFC/10^6	–
3324.1636 (FFSANAAALASRKSS)	–	–	–	93	93 SFC/10^6	–
3324.1647 (SLATLQSLESIVGKD)	–	–	–	228	228 SFC/10^6	–
3324.1653 (FDLYFSMARGNASLP)	–	–	–	343	343 SFC/10^6	–
3337.0006 (KQEDDGLCYEGTNCG)	–	–	–	123	123 SFC/10^6	–
3337.0007 (GKYCVCYDSKAICNK)	–	–	–	47	47 SFC/10^6	–
3337.0008 (WLDAKSTWYGKPTGA)	57 SFC/10^6	140 SFC/10^6 and 283 SFC/10^6 and 163 SFC/10^6	–	–	–	140 SFC/10^6 and 57 SFC/10^6 and 283 SFC/10^6 and 163 SFC/10^6
3337.0028 (EPIAPYHFDLSGHAF)	97 SFC/10^6	157 SFC/10^6	–	–	–	253 SFC/10^6
3337.0039 (SWGAIWRIDTPDKLT)	–	–	–	155	155 SFC/10^6	–
CC[C@H](C)[C@H](NC(=O)[C@H](Cc1ccccc1)NC(=O)[C@H](C)NC(=O)[C@H](CCCCN)NC(=O)[C@H](Cc1ccccc1)NC(=O)[C@H](CC(C)C)NC(=O)[C@H](CCCNC(=N)N)NC(=O)[C@H](C)NC(=O)[C@H](C)NC(=O)[C@@H]1CCCN1C(=O)[C@@H](NC(=O)[C@@H](NC(=O)[C@H](CO)NC(=O)[C@@H]1CCCN1)C(C)C)[C@@H](C)CC)C(=O)N[C@@H](CC(C)C)C(=O)O [3324.0004]	–	683 SFC/10^6	–	–	–	683 SFC/10^6
CC[C@H](C)[C@H](NC(=O)[C@H](CO)NC(=O)CNC(=O)CN)C(=O)N[C@@H](CC(C)C)C(=O)N[C@@H](CCCCN)C(=O)N[C@H](C(=O)N[C@@H](CO)C(=O)N[C@@H](CC(N)=O)C(=O)N[C@@H](CCCCN)C(=O)N[C@@H](Cc1ccccc1)C(=O)N[C@@H](Cc1c[nH]cn1)C(=O)N[C@H](C(=O)N[C@@H](CCCCN)C(=O)NCC(=O)O)[C@@H](C)O)[C@@H](C)CC [3324.0007]	–	887 SFC/10^6 and 357 SFC/10^6	–	–	–	887 SFC/10^6 and 357 SFC/10^6
CC[C@H](C)[C@H](N)C(=O)N[C@H](C(=O)N[C@@H](Cc1ccc(O)cc1)C(=O)N[C@H](C(=O)N[C@@H](CCCCN)C(=O)N1CCC[C@H]1C(=O)N[C@@H](C)C(=O)N[C@@H](CCCCN)C(=O)N[C@@H](CC(N)=O)C(=O)N[C@H](C(=O)N[C@@H](Cc1ccc(O)cc1)C(=O)N[C@@H](CO)C(=O)N[C@@H](Cc1ccccc1)C(=O)N[C@@H](CC(N)=O)C(=O)N[C@@H](CCC(=O)O)C(=O)O)[C@@H](C)CC)[C@@H](C)CC)C(C)C [3324.0386]	–	227 SFC/10^6 and 487 SFC/10^6	–	–	–	227 SFC/10^6 and 487 SFC/10^6
CC[C@H](C)[C@H](NC(=O)[C@H](CC(N)=O)NC(=O)[C@H](CCCCN)NC(=O)[C@H](C)NC(=O)[C@@H]1CCCN1C(=O)[C@H](CCCCN)NC(=O)[C@@H](NC(=O)[C@H](Cc1ccc(O)cc1)NC(=O)[C@@H](NC(=O)[C@@H](NC(=O)[C@H](CCCCN)NC(=O)[C@H](CC(N)=O)NC(=O)[C@H](CC(C)C)NC(=O)[C@@H](NC(=O)[C@@H](N)CCCNC(=N)N)[C@@H](C)O)[C@@H](C)CC)C(C)C)[C@@H](C)CC)C(=O)O [3324.0387]	–	580 SFC/10^6 and 140 SFC/10^6	–	–	–	580 SFC/10^6 and 140 SFC/10^6
CC[C@H](C)[C@H](NC(=O)[C@H](CC(N)=O)NC(=O)[C@H](CCSC)NC(=O)[C@H](CC(N)=O)NC(=O)[C@H](CCC(N)=O)NC(=O)[C@H](CO)NC(=O)[C@H](Cc1ccccc1)NC(=O)[C@@H](NC(=O)[C@@H](NC(=O)[C@H](Cc1c[nH]c2ccccc12)NC(=O)[C@H](CC(C)C)NC(=O)[C@H](C)NC(=O)[C@@H](N)CCCCN)[C@@H](C)CC)[C@@H](C)CC)C(=O)N[C@@H](CCCCN)C(=O)N[C@@H](CC(C)C)C(=O)O [3324.0604]	–	390 SFC/10^6	–	–	–	390 SFC/10^6
